Data as given in patent US10829520B2, “Beta-hairpin peptidomimetics” (POLYPHOR AG, priority 2015, dated 2020).
Where a SMILES comes first, the peptide text is derived from it. Bridges are numbered along the chain shown (N, C = ends). [ ]: non-standard residue; d: D form. Tle = CC(C)(C)[C@H](N)C(=O)O; dNle = CCCC[C@@H](N)C(=O)O; dDab = NCC[C@@H](N)C(=O)O; Nle = CCCC[C@H](N)C(=O)O; Orn = NCCC[C@H](N)C(=O)O; Dab = NCC[C@H](N)C(=O)O

Assays:
Format in all cases: cell-based
[1] = test system: human red blood cells (hRBC); assay: Hemolysis of human red blood cells; conditions: red cells of human, 1 h, 100 μg/mL
Method in brief: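 Percent hemolysis = OD540 of peptide-treated supernatant relative to the 2.5% Triton X-100 (100%) control, PBS containing 0.001% acetic acid defining 0%. Peptides tested at 100 μg/mL against 20% (v/v) washed human RBC, 1 h, 37 °C, 300 rpm.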

[2] = test system: Klebsiella pneumoniae SSI #3010; conditions: SSI #3010
Method in brief: (§1)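 Antibacterial activity is measured as MIC (μg/mL) by standard CLSI microdilution. Inocula of about 10^6 CFU/mL in MH-II broth meet two-fold peptide dilutions in medium with 0.002% Polysorbate 80, and growth is scored visually after 18-20 hours at 35° C.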

Escherichia coli 926415 = conditions: 926415
[3] = test system: Acinetobacter baumannii DSM 30008; conditions: DSM 30008
Method in brief: as §1

[4] = test system: Klebsiella pneumoniae 968733; conditions: 968733
[5] = test system: Acinetobacter baumannii 872842; conditions: 872842
[6] = test system: Pseudomonas aeruginosa ATCC 27853; conditions: ATCC 27853
Method in brief: as §1

[7] = test system: Escherichia coli ATCC 25922; conditions: ATCC 25922
Method in brief: as §1

| Compound | Hemolysis at 100 μg/mL [1] [%] | Klebsiella pneumoniae SSI #3010 MIC [2] [µg/mL] | Escherichia coli 926415 MIC (Escherichia coli 926415) [µg/mL] | Acinetobacter baumannii DSM 30008 MIC [3] [µg/mL] | Klebsiella pneumoniae 968733 MIC [4] [µg/mL] | Acinetobacter baumannii 872842 MIC [5] [µg/mL] | Pseudomonas aeruginosa ATCC 27853 MIC [6] [µg/mL] | Escherichia coli ATCC 25922 MIC [7] [µg/mL] |
| --- | --- | --- | --- | --- | --- | --- | --- | --- |
| CCCC[C@@H]1NC(=O)[C@@H]2CCCN2C(=O)[C@H]2CCCN2C(=O)[C@H](CO)NC(=O)[C@H](CO)NC(=O)[C@H](C(C)(C)C)NC(=O)[C@H](CCN)NC(=O)[C@H](Cc2c[nH]c3ccccc23)NC(=O)[C@@H](N)CSSC[C@@H](C(=O)N[C@@H](C)C(=O)N[C@H](CCN)C(=O)N[C@H]2CCNC(=O)[C@H]([C@@H](C)O)NC(=O)[C@H](CCN)NC(=O)[C@H](CCN)NC(=O)[C@H](CC(C)C)NC(=O)[C@@H](Cc3ccccc3)NC(=O)[C@H](CCN)NC2=O)NC(=O)[C@H](CCCN)NC(=O)[C@H](CCN)NC(=O)[C@H](Cc2ccc(O)cc2)NC(=O)[C@H](CO)NC1=O [Ex. 199] (H-CW[Dab][Tle]SS[dP]P[Nle]SY[Dab][Orn]CA[dDab][Dab][Dab][dF]L[Dab][Dab]T; disulfide 1-14; lactam 17-C) | <1 | 0.5 | 0.5 | 2 | 4 | 0.5 | 2 | 0.25 |
| CCCC[C@@H]1NC(=O)[C@@H]2CCCN2C(=O)[C@H]2CCCN2C(=O)[C@H](CO)NC(=O)[C@H](CO)NC(=O)[C@H](C(C)(C)C)NC(=O)[C@H](CCN)NC(=O)[C@H](Cc2c[nH]c3ccccc23)NC(=O)[C@@H](N)CSSC[C@@H](C(=O)N[C@H](CCCC)C(=O)N[C@H](CCN)C(=O)N[C@H]2CCNC(=O)[C@H]([C@@H](C)O)NC(=O)[C@H](CCN)NC(=O)[C@H](CCN)NC(=O)[C@H](CC(C)C)NC(=O)[C@@H](Cc3ccccc3)NC(=O)[C@H](CCN)NC2=O)NC(=O)[C@H](CCCN)NC(=O)[C@H](CCN)NC(=O)[C@H](Cc2ccc(O)cc2)NC(=O)[C@H](CO)NC1=O [Ex. 200] (H-CW[Dab][Tle]SS[dP]P[Nle]SY[Dab][Orn]C[dNle][dDab][Dab][Dab][dF]L[Dab][Dab]T; disulfide 1-14; lactam 17-C) | <1 | 0.25 | 0.5 | 0.5 | 1 | 1 | 2 | 0.125 |
| CCCC[C@@H]1NC(=O)[C@@H]2CCCN2C(=O)[C@H]2CCCN2C(=O)[C@H](CO)NC(=O)[C@H](CO)NC(=O)[C@H](C(C)(C)C)NC(=O)[C@H](CCN)NC(=O)[C@H](Cc2c[nH]c3ccccc23)NC(=O)[C@@H](N)CSSC[C@@H](C(=O)N[C@@H](Cc2ccc(O)cc2)C(=O)N[C@H](CCN)C(=O)N[C@H]2CCNC(=O)[C@H]([C@@H](C)O)NC(=O)[C@H](CCN)NC(=O)[C@H](CCN)NC(=O)[C@H](CC(C)C)NC(=O)[C@@H](Cc3ccccc3)NC(=O)[C@H](CCN)NC2=O)NC(=O)[C@H](CCCN)NC(=O)[C@H](CCN)NC(=O)[C@H](Cc2ccc(O)cc2)NC(=O)[C@H](CO)NC1=O [Ex. 201] (H-CW[Dab][Tle]SS[dP]P[Nle]SY[Dab][Orn]CY[dDab][Dab][Dab][dF]L[Dab][Dab]T; disulfide 1-14; lactam 17-C) | <1 | 1 | 0.5 | 1 | 8 | 0.5 | 1 | 0.25 |
